This note sets out measurements from US7053052B2, “Therapies involving mutated heat shock transcription factor” (priority 1997, dated 2006).

“Also recorded” adds a separate entry of the source.

This assay concerns HeLa-CAT cells. Nature of the assay: Cell proliferation and cell cycle distribution (FACS, propidium iodide). It counts as cell-based, human. How it is done: This cell cycle arrest was followed by flow cytometry of propidium iodide-stained cells. To determine whether mutHSF-induced expression (enhanced expression) of hsp protects the cells from hyperthermia-induced cell cycle arrest, cells were either co-transfected with a CMV promoter-linked mutHSF gene construct and a GFP construct, or singly transfected with the GFP construct. After heat treatment and postincubation as described herein, cells were sorted based on GFP fluorescence. […]
For fluorescence-activated cell sorting, cells from cultures transfected or co-transfected with EGFP-expressing construct were removed from tissue culture dishes by treatment with 0.04% EDTA in phosphate-buffered saline (PBS) and were resuspended in PBS. […] Excitation wavelength was 488 nm, and detection wave lengths were 650 nm (long pass) for propidium iodide and 520 nm (narrow band) for detection of EGFP fluorescence. […]
Protein synthesis dropped to about 10% of the normal rate during heat shock but, after a 1 hour recovery period, returned to pre-shock level in HSF1(+)-expressing but not control cells. […] Fluorescence-activated cell sorting and analyses of DNA content were performed on a FACStar Plus machine (Becton-Dickinson, San Jose, Calif.) configured as described elsewhere (Parks, D. R. et al., In: The Handbook of Experimental Immunology, 4th Edition. Vol. 29. pp. 1–29, 1986). […]

For human HSF1d202–316 [HSF1(+)], the “heat-induced G2/M cell cycle arrest” value (43° C. heat shock, GFP-positive cells, listed as mutHSF) is “much lower proportion of cells in G2/M phase; also recorded: only a small fraction”. Moreover, where the note is “FACS-isolated, days two to four”, the cell proliferation entry is given as “severely inhibited cell proliferation”.
